Results on 26 molecules are retold here after patent US8759535B2, “Substituted fused imidazole derivatives, pharmaceutical compositions, and methods of use thereof” (High Point Pharmaceuticals, LLC, priority 2010, dated 2014).

As a reminder, the fold induction is the signal under treatment as a multiple of the control signal.

Where a name gives a salt, the structure may show the parent alone.

The test system of one test is HMOX1. Description: HMOX1 Protein Assay (immunostaining of HO-1 in NHLF cells, GE InCell 1000). The class given is cell-based. To be noted: Homo sapiens, fold change above DMSO treated cells, 3 μM compound (asterisk), 16 h. On the procedure:
Cell Culture. Normal Human Fibroblast (NHLF), were obtained from Lonza. Cultures of cells were maintained in Fibroblast Growth Medium (FGM-2) medium supplemented with 2% fetal bovine serum (FBS), Fibroblast Growth Factor (hFGF-B) 0.5 mL, Insulin 0.5 mL, gentamicin/amphotericin-B 0.5 mL at 37° C. in a humidified atmosphere of 5% CO2. Cells were grown to 80% confluence before treating.
HMOX1 Protein Assay. NHLF cells were grown to 80% confluency and harvested by washing once with HEPES and then trypsinized. Equal numbers (2×10^3 cells per well) of NHLF cells were plated in 384 well optilux tissue culture (BD) plates. Cells were incubated overnight in FGM-2 medium prior to exposure to compound. Cells were treated with either vehicle (DMSO) or compound (dissolved in vehicle) for 16 h. Cells were washed 2× with 1×PBS and fixed with 4% Paraformaldyhyde for 15 min. The fixed cells were then permeabalized with 0.1% Triton X-100 and blocked with 5% BSA in 1×PBS 0.05% Tween-20 for 15 min. HO-1 antibody (abcam) was used for immunostaining at 1:300 dilution in 1% BSA in 1×PBS for 1 hour. Cells were washed 2× with 1×PBS and secondary antibody goat anti-mouse Alexa 488 1:400 dilution (Invitrogen); Hoechst 1:2000 (Invitrogen) in 1% BSA in 1×PBS for 1 hour. Plate was washed 5× with 1×PBS and read at Hoechst Ex.360 […]; Alexa 488 Ex.480 Em. 535 using GE InCell 1000. Results analyzed using GE InCell Analyzer software. Heme oxygenase data represents the fold change above DMSO treated cells.
In general, the fold induction data are reported for 5 μM concentration (i.e., μ-moles of compound to total volume, where the solvent is about 99.2% media and 0.8% DMSO). In some instances, the reported data are for 3 μM concentration, which are indicated by an asterisk (*).
`CN(C)C(=O)CCNC(=O)c1ccc2c(c1)nc(Nc1nc3ccc(Cl)cc3s1)n2C` [Example 371, 2-(6-Chloro-benzothiazol-2-ylamino)-1-methyl-1H-benzoimidazole-5-carboxylic acid (2-dimethylcarbamoyl-ethyl)-amide] registered a fold induction at 3 µM of 29.
On the same count and under the same terms, next, `CO[C@H]1CCCN(C(=O)CNC(=O)c2ccc3c(c2)nc(Nc2nc4ccc(C(F)(F)F)cc4s2)n3C)C1` [Example 445, 1-Methyl-2-(6-trifluoromethyl-benzothiazol-2-ylamino)-1H-benzoimidazole-5-carboxylic acid [2-((S)-3-methoxy-piperidin-1-yl)-2-oxo-ethyl]-amide]: 36.4.
`Cn1c(Nc2nc3ccc(OC(F)(F)F)cc3s2)nc2cc(C(=O)NCCCOCCO)ccc21` [Example 250, 1-Methyl-2-(6-trifluoromethoxy-benzothiazol-2-ylamino)-1H-benzoimidazole-5-carboxylic acid [3-(2-hydroxy-ethoxy)-propyl]-amide] returned a fold induction at 3 µM of 25.1.

Staying with this test, now noted: Homo sapiens, fold change above DMSO treated cells, 5 μM compound, 16 h.
`Cc1ccc2nc(Nc3nc4cc(C(=O)NCC(=O)N(C)C)ccc4n3C)sc2c1` [Example 363, 1-Methyl-2-(6-methyl-benzothiazol-2-ylamino)-1H-benzoimidazole-5-carboxylic acid dimethylcarbamoylmethyl-amide] showed a fold induction at 5 µM of 10.
Take `Cn1c(Nc2nc3ccc(OC(F)(F)F)cc3s2)nc2cc(C(=O)NCC#N)ccc21` [Example 211, 1-Methyl-2-(6-trifluoromethoxy-benzothiazol-2-ylamino)-1H-benzoimidazole-5-carboxylic acid cyanomethyl-amide]: the fold induction at 5 µM turned out to be 46.1.
Same read-out and setting: as for `Cn1c(Nc2nc3ccc(Cl)cc3s2)nc2cc(C(=O)N[C@H]3CCCNC3)ccc21` [Example 310, 2-(6-Chloro-benzothiazol-2-ylamino)-1-methyl-1H-benzoimidazole-5-carboxylic acid (S)-piperidin-3-ylamide hydrochloride], the figure is 24.6; as for `CNC(=O)c1ccc2c(c1)nc(Nc1nc3ccc(OC(F)(F)F)cc3s1)n2C` [Example 1, 1-Methyl-2-(6-trifluoromethoxy-benzothiazol-2-ylamino)-1H-benzoimidazole-5-carboxylic acid methyl amide], 19.4.
In turn, `CNCC1CCN(C(=O)CNC(=O)c2ccc3c(c2)nc(Nc2nc4ccc(Cl)cc4s2)n3C)CC1` [Example 457, 2-(6-Chloro-benzothiazol-2-ylamino)-1-methyl-1H-benzoimidazole-5-carboxylic acid [2-(4-methylaminomethyl-piperidin-1-yl)-2-oxo-ethyl]-amide hydrochloride] returned a fold induction at 5 µM of 39.9.
Regarding `Cn1c(Nc2nc3ccc(OC(F)(F)F)cc3s2)nc2cc(C(=O)NC[C@H](O)CO)ccc21` [Example 280, 1-Methyl-2-(6-trifluoromethoxy-benzothiazol-2-ylamino)-1H-benzoimidazole-5-carboxylic acid ((S)-2,3-dihydroxy-propyl)-amide], the fold induction at 5 µM is 38.8.
The molecule `Cn1c(Nc2nc3ccc(OC(F)(F)F)cc3s2)nc2cc(C(=O)NCC(=O)N3CCC(CF)CC3)ccc21` [Example 448, 1-Methyl-2-(6-trifluoromethoxy-benzothiazol-2-ylamino)-1H-benzoimidazole-5-carboxylic acid [2-(4-fluoromethyl-piperidin-1-yl)-2-oxo-ethyl]-amide] returned a fold induction at 5 µM of 36.7.
As to `CCOC(=O)c1cnc2c(c1)nc(Nc1nc3ccc(OC(F)(F)F)cc3s1)n2C` [Example 71, 3-Methyl-2-(6-trifluoromethoxy-benzothiazol-2-ylamino)-3H-imidazo[4,5-b]pyridine-6-carboxylic acid ethyl ester], the fold induction at 5 µM was found to be 4.2.
Regarding `Cn1c(Nc2nc3ccc(OC(F)(F)F)cc3s2)nc2cc(C(=O)NCCN3CCOCC3)cnc21` [Example 77, 3-Methyl-2-(6-trifluoromethoxy-benzothiazol-2-ylamino)-3H-imidazo[4,5-b]pyridine-6-carboxylic acid (2-morpholin-4-yl-ethyl)-amide], the fold induction at 5 µM came out at 31.4.
Regarding `CNC(=O)c1ccc2c(c1)nc(Nc1nc3ccc(OC(F)(F)F)cc3s1)n2C(C)C` [Example 160, 1-Isopropyl-2-(6-trifluoromethoxy-benzothiazol-2-ylamino)-1H-benzoimidazole-5-carboxylic acid methylamide], the fold induction at 5 µM was 22.9.
With `Cn1c(Nc2nc3ccc(OC(F)(F)F)cc3s2)nc2cc(C(=O)NCC3COCCO3)ccc21` (centres unmarked) [Example 49, 1-Methyl-2-(6-trifluoromethoxy-benzothiazol-2-ylamino)-1H-benzoimidazole-5-carboxylic acid ([1,4]dioxan-2-ylmethyl)-amide], the fold induction at 5 µM amounted to 23.1.
Molecule `Cn1c(Nc2nc3ccc(Cl)cc3s2)nc2cc(C(=O)NCC(=O)NCCS(C)(=O)=O)ccc21` [Example 383, 2-(6-Chloro-benzothiazol-2-ylamino)-1-methyl-1H-benzoimidazole-5-carboxylic acid [(2-methanesulfonyl-ethylcarbamoyl)-methyl]-amide] came in with a fold induction at 5 µM of 16.4.
Still for that read-out and setting: next, `COCCn1c(Nc2nc3ccc(Cl)cc3s2)nc2cc(C(=O)NCC(=O)N3CC[C@@H](O)C3)ccc21` [Example 404, 2-(6-Chloro-benzothiazol-2-ylamino)-1-(2-methoxy-ethyl)-1H-benzoimidazole-5-carboxylic acid [2-((R)-3-hydroxy-pyrrolidin-1-yl)-2-oxo-ethyl]-amide]: 26.1; `COC(=O)c1cc2nc(Nc3nc4ccc(OC(F)(F)F)cc4s3)n(C)c2cc1OC` [Example 61, 6-Methoxy-1-methyl-2-(6-trifluoromethoxy-benzothiazol-2-ylamino)-1H-benzoimidazole-5-carboxylic acid methyl ester]: 12.1.
Molecule `CN(C)C(=O)CNC(=O)c1ccc2c(c1)nc(Nc1nc3ccc(C(F)(F)F)cc3s1)n2C` [Example 134, 1-Methyl-2-(6-trifluoromethyl-benzothiazol-2-ylamino)-1H-benzimidazole-5-carboxylic acid dimethylcarbamoylmethyl-amide] displayed a fold induction at 5 µM of 54.5.
As for `Cn1c(Nc2nc3ccc(OC(F)(F)F)cc3s2)nc2cc(C(=O)NCC(=O)N3C[C@H](O)[C@@H](O)C3)ccc21` [Example 407, 1-Methyl-2-(6-trifluoromethoxy-benzothiazol-2-ylamino)-1H-benzoimidazole-5-carboxylic acid [2-((3S,4S)-3,4-dihydroxy-pyrrolidin-1-yl)-2-oxo-ethyl]-amide], the fold induction at 5 µM came out at 7.73.
In the case of `Cn1c(Nc2nc3ccc(OC(F)(F)F)cc3s2)nc2cc(C(=O)NC3CCCN(C(=O)OC(C)(C)C)C3)ccc21` (centres unmarked) [Example 94, 3-{[1-Methyl-2-(6-trifluoromethoxy-benzothiazol-2-ylamino)-1H-benzoimidazole-5-carbonyl]-amino}-piperidine-1-carboxylic acid tert-butyl ester], the fold induction at 5 µM amounted to 1.2.
Same read-out and setting: next, `Cn1c(Nc2nc3ccc(OC(F)(F)F)cc3s2)nc2cc(C(=O)NCC(=O)N3CCC(C(N)=O)CC3)ccc21` [Example 451, 1-Methyl-2-(6-trifluoromethoxy-benzothiazol-2-ylamino)-1H-benzoimidazole-5-carboxylic acid [2-(4-carbamoyl-piperidin-1-yl)-2-oxo-ethyl]-amide]: 51.3; `CCNC(=O)c1ccc2c(c1)nc(Nc1nc3ccc(C(F)(F)F)cc3s1)n2C` [Example 26, 1-Methyl-2-(6-trifluoromethyl-benzothiazol-2-ylamino)-1H-benzoimidazole-5-carboxylic acid ethylamide]: 15.5.
Molecule `CC(O)CNC(=O)c1cnc2c(c1)nc(Nc1nc3ccc(OC(F)(F)F)cc3s1)n2C` (centres unmarked) [Example 78, 3-Methyl-2-(6-trifluoromethoxy-benzothiazol-2-ylamino)-3H-imidazo[4,5-b]pyridine-6-carboxylic acid (2-hydroxy-propyl)-amide] returned a fold induction at 5 µM of 28.6.
The same measure, in the same setting: next, `Cn1c(Nc2nc3ccc(Cl)cc3s2)nc2cc(C(=O)NCC(=O)N3CCS(=O)(=O)CC3)ccc21` [Example 424, 2-(6-Chloro-benzothiazol-2-ylamino)-1-methyl-1H-benzoimidazole-5-carboxylic acid [2-(1,1-dioxo-thiomorpholin-4-yl)-2-oxo-ethyl]-amide]: 24.9; `COCCOCCNC(=O)c1ccc2c(c1)nc(Nc1nc3ccc(Cl)cc3s1)n2C` [Example 261, 2-(6-Chloro-benzothiazol-2-ylamino)-1-methyl-1H-benzoimidazole-5-carboxylic acid [2-(2-methoxy-ethoxy)-ethyl]-amide]: 35.7; `COCC(C)NC(=O)c1ccc2c(c1)nc(Nc1nc3ccc(OC(F)(F)F)cc3s1)n2C` (centres unmarked) [Example 20, 1-Methyl-2-(6-trifluoromethoxy-benzothiazol-2-ylamino)-1H-benzoimidazole-5-carboxylic acid (2-methoxy-1-methyl-ethyl)-amide]: 18.6.
